Laboratory results as given in ChEMBL document CHEMBL2203234, “Optimisation of imidazole compounds as selective TAAR1 agonists: discovery of RO5073012” (Bioorg Med Chem Lett, 2012).
pKi: −log10 of the molar value.

Experiments:
[1] = biological target: Histamine H3 receptor (Homo sapiens) (UniProt Q9Y5N1); assay: Inhibition of human H3 receptor at 10 uM by CEREP assay
Homo sapiens [2] = species on record: Homo sapiens; assay: Inhibition of human I1 receptor at 10 uM by CEREP assay
[3] = biological target: Melanocyte-stimulating hormone receptor (Homo sapiens) (UniProt Q01726); assay: Inhibition of MC1 receptor at 10 uM by CEREP assay
[4] = biological target: Muscarinic acetylcholine receptor M1 (Homo sapiens) (UniProt P11229); assay: Inhibition of human M1 receptor at 10 uM by CEREP assay
[5] = biological target: Muscarinic acetylcholine receptor M3 (Homo sapiens) (UniProt P20309); assay: Inhibition of human M3 receptor at 10 uM by CEREP assay
[6] = biological target: Muscarinic acetylcholine receptor M4 (Homo sapiens) (UniProt P08173); assay: Inhibition of human M4 receptor at 10 uM by CEREP assay
[7] = biological target: Neuropeptide Y receptor type 2 (Homo sapiens) (UniProt P49146); assay: Inhibition of human Y2 receptor at 10 uM by CEREP assay
[8] = biological target: Neuronal acetylcholine receptor; alpha4/beta2 (Homo sapiens) (UniProt P17787+P43681); assay: Inhibition of neuronal alpha4beta2 nAChR at 10 uM by CEREP assay; format: protein-complex assay
Homo sapiens [9] = species on record: Homo sapiens; assay: Inhibition of human DOP/delta 2 receptor at 10 uM by CEREP assay
[10] = biological target: Nociceptin receptor (Homo sapiens) (UniProt P41146); assay: Inhibition of human ORL1 receptor at 10 uM by CEREP assay
[11] = Inhibition of NMDA receptor PCP site at 10 uM by CEREP assay
[12] = biological target: 5-hydroxytryptamine receptor 1D (Homo sapiens) (UniProt P28221); assay: Inhibition of 5-HT1D receptor at 10 uM by CEREP assay
[13] = biological target: 5-hydroxytryptamine receptor 3A (Homo sapiens) (UniProt P46098); assay: Inhibition of human 5-HT3 receptor at 10 uM by CEREP assay
[14] = biological target: 5-hydroxytryptamine receptor 5A (Homo sapiens) (UniProt P47898); assay: Inhibition of human 5-HT5A receptor at 10 uM by CEREP assay
[15] = Inhibition of sigma receptor at 10 uM by CEREP assay
[16] = Inhibition of sst receptor at 10 uM by CEREP assay
[17] = biological target: Estrogen receptor (Homo sapiens) (UniProt P03372); assay: Inhibition of human estrogen receptor at 10 uM by CEREP assay
[18] = biological target: Progesterone receptor (Homo sapiens) (UniProt P06401); assay: Inhibition of human progesterone receptor at 10 uM by CEREP assay
[19] = biological target: Vasoactive intestinal polypeptide receptor 1 (Homo sapiens) (UniProt P32241); assay: Inhibition of human VIP1 receptor at 10 uM by CEREP assay
[20] = biological target: Sodium-dependent noradrenaline transporter (Homo sapiens) (UniProt P23975); assay: Inhibition of human NE transporter at 10 uM by CEREP assay
[21] = biological target: Sodium-dependent dopamine transporter (Homo sapiens) (UniProt Q01959); assay: Inhibition of human DA transporter at 10 uM by CEREP assay
[22] = biological target: Sodium-dependent serotonin transporter (Homo sapiens) (UniProt P31645); assay: Inhibition of human 5-HT transporter at 10 uM by CEREP assay
[23] = Inhibition of PDE1 at 10 uM by CEREP assay
[24] = biological target: cGMP-dependent 3',5'-cyclic phosphodiesterase (Homo sapiens) (UniProt O00408); assay: Inhibition of human PDE2 at 10 uM by CEREP assay
[25] = biological target: Phosphodiesterase 4 (Homo sapiens) (UniProt P27815+Q08499+Q07343+Q08493); assay: Inhibition of human PDE4 at 10 uM by CEREP assay; format: protein assay
[26] = biological target: Phosphodiesterase 6 (Homo sapiens) (UniProt Q13956+P18545+P35913+O43924+P16499+P51160); assay: Inhibition of human PDE6 at 10 uM by CEREP assay; format: protein assay
[27] = biological target: 4-aminobutyrate aminotransferase, mitochondrial (Homo sapiens) (UniProt P80404); assay: Inhibition of GABA transaminase at 10 uM by CEREP assay
[28] = biological target: MAO-B (amine oxidase [flavin-containing] B) (Homo sapiens, UniProt P27338); assay: Inhibition of human MAO-B at 10 uM by CEREP assay
[29] = biological target: Phenylethanolamine N-methyltransferase (Homo sapiens) (UniProt P11086); assay: Inhibition of PNMT at 10 uM by CEREP assay
[30] = Inhibition of tyrosine hydroxylase at 10 uM by CEREP assay
[31] = Inhibition of Adenylyl cyclase at 10 uM by CEREP assay
[32] = Inhibition of alpha 2 adrenergic receptor by CEREP assay
[33] = Inhibition of human I1 receptor by CEREP assay
[34] = biological target: 5-hydroxytryptamine receptor 1A (Homo sapiens, UniProt P08908); assay: Inhibition of human 5-HT1A receptor by CEREP assay
[35] = biological target: Glucagon receptor (Homo sapiens) (UniProt P47871); assay: Inhibition of human glucagon receptor at 10 uM by CEREP assay
[36] = Inhibition of GABA receptor at 10 uM by CEREP assay
[37] = biological target: D(1B) dopamine receptor (Homo sapiens) (UniProt P21918); assay: Inhibition of human D5 receptor at 10 uM by CEREP assay
[38] = biological target: Corticotropin-releasing factor receptor 1 (Homo sapiens) (UniProt P34998); assay: Inhibition of human CRF1 receptor at 10 uM by CEREP assay
[39] = biological target: Calcitonin gene-related peptide type 1 receptor (Homo sapiens) (UniProt Q16602); assay: Inhibition of human CGRP receptor at 10 uM by CEREP assay
[40] = biological target: B1 bradykinin receptor (Homo sapiens) (UniProt P46663); assay: Inhibition of human B1 receptor at 10 uM by CEREP assay
[41] = Inhibition of peripheral BZD receptor at 10 uM by CEREP assay
[42] = biological target: Beta-1 adrenergic receptor (Homo sapiens) (UniProt P08588); assay: Inhibition of human beta 1 adrenergic receptor at 10 uM by CEREP assay
[43] = Inhibition of alpha 1 adrenergic receptor at 10 uM by CEREP assay
[44] = biological target: Adenosine receptor A2a (Homo sapiens) (UniProt P29274); assay: Inhibition of human A2A receptor at 10 uM by CEREP assay
[45] = biological target: Adenosine receptor A3 (Homo sapiens) (UniProt P0DMS8); assay: Inhibition of human A3 receptor at 10 uM by CEREP assay

Chain of Phenylethanolamine N-methyltransferase (Homo sapiens) (P11086 whole entry): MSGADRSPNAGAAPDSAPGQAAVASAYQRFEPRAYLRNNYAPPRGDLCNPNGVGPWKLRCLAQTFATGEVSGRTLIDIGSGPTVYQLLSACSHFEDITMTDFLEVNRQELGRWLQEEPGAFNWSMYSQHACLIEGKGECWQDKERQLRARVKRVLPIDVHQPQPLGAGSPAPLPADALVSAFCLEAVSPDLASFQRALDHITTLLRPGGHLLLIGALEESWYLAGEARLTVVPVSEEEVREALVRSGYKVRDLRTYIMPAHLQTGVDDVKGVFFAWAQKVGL
Chain of 5-hydroxytryptamine receptor 5A (Homo sapiens) (P47898 whole entry): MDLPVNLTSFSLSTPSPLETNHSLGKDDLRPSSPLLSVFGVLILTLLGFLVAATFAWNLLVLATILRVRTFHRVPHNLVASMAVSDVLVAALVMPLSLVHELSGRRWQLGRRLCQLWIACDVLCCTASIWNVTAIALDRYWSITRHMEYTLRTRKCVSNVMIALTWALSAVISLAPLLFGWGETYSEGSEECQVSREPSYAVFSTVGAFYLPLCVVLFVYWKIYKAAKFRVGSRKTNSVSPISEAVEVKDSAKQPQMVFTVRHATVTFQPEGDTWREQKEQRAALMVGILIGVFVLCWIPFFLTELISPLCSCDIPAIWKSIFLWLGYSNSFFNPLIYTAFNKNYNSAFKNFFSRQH
Chain of Corticotropin-releasing factor receptor 1 (Homo sapiens) (P34998 whole entry): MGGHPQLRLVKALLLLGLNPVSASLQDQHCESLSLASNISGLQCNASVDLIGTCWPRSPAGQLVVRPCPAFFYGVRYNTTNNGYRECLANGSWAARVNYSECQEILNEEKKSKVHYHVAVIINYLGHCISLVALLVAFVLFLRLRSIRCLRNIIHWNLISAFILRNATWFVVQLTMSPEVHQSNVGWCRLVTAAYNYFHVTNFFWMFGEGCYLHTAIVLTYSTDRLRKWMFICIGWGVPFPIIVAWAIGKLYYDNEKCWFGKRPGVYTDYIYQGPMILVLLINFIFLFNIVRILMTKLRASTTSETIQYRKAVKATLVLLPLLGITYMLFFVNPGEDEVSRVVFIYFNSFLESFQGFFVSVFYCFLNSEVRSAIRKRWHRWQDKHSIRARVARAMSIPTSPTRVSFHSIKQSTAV
Chain of Adenosine receptor A2a (Homo sapiens) (P29274 whole entry): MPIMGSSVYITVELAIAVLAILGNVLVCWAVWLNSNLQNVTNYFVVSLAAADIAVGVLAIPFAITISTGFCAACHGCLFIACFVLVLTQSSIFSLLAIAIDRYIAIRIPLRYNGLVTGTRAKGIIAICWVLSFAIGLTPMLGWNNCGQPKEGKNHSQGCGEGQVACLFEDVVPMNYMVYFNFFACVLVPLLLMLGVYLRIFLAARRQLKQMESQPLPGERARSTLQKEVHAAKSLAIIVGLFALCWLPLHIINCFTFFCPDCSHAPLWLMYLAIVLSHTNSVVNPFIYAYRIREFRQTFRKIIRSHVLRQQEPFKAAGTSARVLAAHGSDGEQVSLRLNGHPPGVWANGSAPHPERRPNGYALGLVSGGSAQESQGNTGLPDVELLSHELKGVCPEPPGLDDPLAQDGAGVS
Chain of Nociceptin receptor (Homo sapiens) (P41146 whole entry): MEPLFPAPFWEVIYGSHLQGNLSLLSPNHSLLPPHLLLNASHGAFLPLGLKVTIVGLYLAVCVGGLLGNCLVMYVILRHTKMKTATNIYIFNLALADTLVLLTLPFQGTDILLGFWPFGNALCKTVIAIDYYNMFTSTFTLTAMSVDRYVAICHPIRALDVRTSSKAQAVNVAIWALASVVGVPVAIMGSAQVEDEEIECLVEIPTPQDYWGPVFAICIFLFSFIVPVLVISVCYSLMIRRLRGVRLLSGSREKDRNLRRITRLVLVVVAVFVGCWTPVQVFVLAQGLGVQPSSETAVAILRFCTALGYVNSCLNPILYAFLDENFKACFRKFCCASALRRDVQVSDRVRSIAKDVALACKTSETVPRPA
Chain of Progesterone receptor (Homo sapiens) (P06401 whole entry): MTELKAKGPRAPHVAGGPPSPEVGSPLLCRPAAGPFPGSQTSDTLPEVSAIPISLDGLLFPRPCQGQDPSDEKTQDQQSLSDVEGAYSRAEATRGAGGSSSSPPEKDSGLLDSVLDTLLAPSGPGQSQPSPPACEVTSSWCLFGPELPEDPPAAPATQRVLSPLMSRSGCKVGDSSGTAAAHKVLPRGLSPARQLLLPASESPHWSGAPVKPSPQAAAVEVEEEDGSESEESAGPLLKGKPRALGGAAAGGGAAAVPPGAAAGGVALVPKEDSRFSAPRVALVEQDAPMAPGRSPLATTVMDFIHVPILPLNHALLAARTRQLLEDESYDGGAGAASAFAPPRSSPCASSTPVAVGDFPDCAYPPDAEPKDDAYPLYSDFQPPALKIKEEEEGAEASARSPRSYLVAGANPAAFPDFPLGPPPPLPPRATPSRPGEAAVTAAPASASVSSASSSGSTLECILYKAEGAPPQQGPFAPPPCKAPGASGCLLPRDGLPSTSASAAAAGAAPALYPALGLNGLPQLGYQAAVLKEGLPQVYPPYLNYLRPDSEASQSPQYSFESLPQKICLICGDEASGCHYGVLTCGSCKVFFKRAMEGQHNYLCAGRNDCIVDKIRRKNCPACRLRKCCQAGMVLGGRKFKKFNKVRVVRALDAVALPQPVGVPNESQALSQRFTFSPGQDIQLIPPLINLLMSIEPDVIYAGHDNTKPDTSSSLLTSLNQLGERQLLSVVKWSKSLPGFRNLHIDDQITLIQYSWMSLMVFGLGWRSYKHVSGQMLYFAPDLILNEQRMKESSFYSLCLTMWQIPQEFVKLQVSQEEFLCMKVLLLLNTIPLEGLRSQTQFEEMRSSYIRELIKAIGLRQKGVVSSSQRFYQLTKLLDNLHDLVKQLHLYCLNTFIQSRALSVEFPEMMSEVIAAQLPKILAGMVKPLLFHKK
Chain of Beta-1 adrenergic receptor (Homo sapiens) (P08588 whole entry, looked up): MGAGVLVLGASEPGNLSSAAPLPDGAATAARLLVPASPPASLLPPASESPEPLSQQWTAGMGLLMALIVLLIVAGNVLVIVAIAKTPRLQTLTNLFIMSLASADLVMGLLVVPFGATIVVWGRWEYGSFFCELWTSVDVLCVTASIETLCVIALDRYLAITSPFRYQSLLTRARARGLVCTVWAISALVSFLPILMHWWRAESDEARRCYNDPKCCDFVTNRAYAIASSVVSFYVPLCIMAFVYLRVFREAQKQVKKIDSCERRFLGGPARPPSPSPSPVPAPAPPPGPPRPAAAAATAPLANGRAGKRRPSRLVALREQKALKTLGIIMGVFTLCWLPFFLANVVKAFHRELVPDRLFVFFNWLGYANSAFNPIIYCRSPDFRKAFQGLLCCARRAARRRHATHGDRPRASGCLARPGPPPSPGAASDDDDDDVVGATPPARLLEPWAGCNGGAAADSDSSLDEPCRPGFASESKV
Chain of Vasoactive intestinal polypeptide receptor 1 (Homo sapiens) (P32241 whole entry): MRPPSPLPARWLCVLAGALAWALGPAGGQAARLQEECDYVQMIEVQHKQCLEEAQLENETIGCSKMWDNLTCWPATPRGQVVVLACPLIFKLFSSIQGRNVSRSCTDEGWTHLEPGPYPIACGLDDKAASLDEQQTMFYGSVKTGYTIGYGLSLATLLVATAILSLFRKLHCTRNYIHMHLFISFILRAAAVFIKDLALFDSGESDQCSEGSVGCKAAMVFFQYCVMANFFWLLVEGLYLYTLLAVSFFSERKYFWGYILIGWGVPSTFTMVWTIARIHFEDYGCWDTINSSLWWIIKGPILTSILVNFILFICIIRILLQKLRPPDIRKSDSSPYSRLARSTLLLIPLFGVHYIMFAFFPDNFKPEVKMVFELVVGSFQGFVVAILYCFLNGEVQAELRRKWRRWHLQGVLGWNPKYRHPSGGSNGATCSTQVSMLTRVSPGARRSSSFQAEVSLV
Chain of Histamine H3 receptor (Homo sapiens) (Q9Y5N1 whole entry): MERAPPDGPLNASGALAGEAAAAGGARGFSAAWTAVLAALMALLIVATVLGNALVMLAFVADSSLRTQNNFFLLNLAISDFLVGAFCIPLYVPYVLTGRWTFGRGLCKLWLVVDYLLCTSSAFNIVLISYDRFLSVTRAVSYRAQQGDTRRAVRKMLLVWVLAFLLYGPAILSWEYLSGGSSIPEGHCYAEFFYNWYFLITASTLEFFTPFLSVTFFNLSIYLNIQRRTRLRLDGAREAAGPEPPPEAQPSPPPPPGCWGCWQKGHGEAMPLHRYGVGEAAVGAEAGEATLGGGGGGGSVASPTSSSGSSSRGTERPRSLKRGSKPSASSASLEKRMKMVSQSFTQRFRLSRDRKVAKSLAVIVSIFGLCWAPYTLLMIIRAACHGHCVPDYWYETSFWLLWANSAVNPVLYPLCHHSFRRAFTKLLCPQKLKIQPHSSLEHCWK
Chain of Sodium-dependent dopamine transporter (Homo sapiens) (Q01959 whole entry): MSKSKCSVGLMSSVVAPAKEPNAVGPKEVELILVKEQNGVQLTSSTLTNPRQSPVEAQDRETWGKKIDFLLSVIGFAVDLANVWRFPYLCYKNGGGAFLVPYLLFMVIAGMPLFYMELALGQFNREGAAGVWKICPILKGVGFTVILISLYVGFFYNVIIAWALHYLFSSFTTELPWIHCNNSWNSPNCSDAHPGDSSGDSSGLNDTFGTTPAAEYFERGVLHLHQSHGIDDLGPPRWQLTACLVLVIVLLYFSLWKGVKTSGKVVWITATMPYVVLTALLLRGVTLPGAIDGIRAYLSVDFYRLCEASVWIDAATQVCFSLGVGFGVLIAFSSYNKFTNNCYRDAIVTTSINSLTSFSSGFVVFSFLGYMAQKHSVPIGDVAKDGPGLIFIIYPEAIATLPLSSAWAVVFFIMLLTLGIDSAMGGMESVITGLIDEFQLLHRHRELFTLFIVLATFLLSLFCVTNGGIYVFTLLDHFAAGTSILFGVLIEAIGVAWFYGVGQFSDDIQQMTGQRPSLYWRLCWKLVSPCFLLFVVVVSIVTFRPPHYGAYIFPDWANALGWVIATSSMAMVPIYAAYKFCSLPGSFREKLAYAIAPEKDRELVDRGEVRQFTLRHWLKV

In the case of CCc1cccc(CC)c1Cc1ncc[nH]1, the inhibition [1] was 6%, the inhibition (Homo sapiens [2]) was 78% and the inhibition [3] was 2%. The inhibition [4] was 24%, the inhibition [5] was 25% and the inhibition [6] was 31%. The inhibition [7] was 15%, the inhibition [8] was 7% and the inhibition (Homo sapiens [9]) was 7%. For the same compound, the inhibition [10] was -3%, the inhibition [11] was 45% and the inhibition [12] was 19%. The inhibition [13] was -6%, the inhibition [14] was 20% and the inhibition [15] was 14%. The inhibition [16] was -6%, the inhibition [17] was -4% and the inhibition [18] was -2%. For the same compound, the inhibition [19] was 1%, the inhibition [20] was -1% and the inhibition [21] was 0%. The inhibition [22] was 4%, the inhibition [23] was 7% and the inhibition [24] was -5%. The inhibition [25] was -2%, the inhibition [26] was 6% and the inhibition [27] was 17%. The inhibition at 10 µM [28] was 0%, the inhibition [29] was 22% and the inhibition [30] was 1%. For the same compound, the inhibition [31] was 2%, the pKi [32] was 5.62 and the pKi [33] was 6.18. It also gave a pKi [34] of 5.89, an inhibition [35] of -5% and an inhibition [36] of -10%. It also gave an inhibition [37] of 17%, an inhibition [38] of -4% and an inhibition [39] of -5%. The inhibition [40] was -6%, the inhibition [41] was 1% and the inhibition [42] was 5%. For the same compound, the inhibition [43] was 23%, the inhibition [44] was -6% and the inhibition [45] was 2%.
